Assay results as given in patent US20100285959A1, “HERBICIDAL MIXTURES” (priority 2006, published 2010).

Legend:
corn (ZEAMD) = experiment: Test 28 greenhouse, post- and preemergence; assay type: in vivo, Zea mays ssp. indentata; settings: 26 DAA
Experimental: (§1) A greenhouse test was conducted to evaluate the effects on the plant species corn (ZEAMD, Zea mays ssp. indentata), sorghum (SORVU, Sorghum vulgare L.), dry-seeded rice (ORYSA, Oryza sativa L.), wheat (TRZAW, Triticum aestivum L.), ivyleaf morningglory (IPOHE, Ipomoea hederacea (L.) JACQ.), and barnyardgrass (ECHCG, Echinochloa crus-galli (L.) P. BEAUV.), of mixtures of Compound 2 with isoxadifen-ethyl. Corn, sorghum, rice, wheat, ivyleaf morningglory and barnyardgrass seeds were planted in RediEarth, a commercial potting medium. […] Corn plants were treated postemergence at the V2 growth stage, and sorghum, rice, wheat, ivyleaf morningglory, and barnyardgrass plants were treated postemergence at the 3-leaf stage. […] Each treatment was replicated three times. […] Plants were watered as needed.

sorghum (SORVU) = experiment: Test 28 greenhouse, postemergence; assay type: in vivo, Sorghum vulgare; settings: 26 DAA
Experimental: as §1

dry-seeded rice (ORYSA) = experiment: Test 28 greenhouse, postemergence; assay type: in vivo, Oryza sativa; settings: 26 DAA
Experimental: as §1

wheat (TRZAW) = experiment: Test 28 greenhouse, post- and preemergence; assay type: in vivo, Triticum aestivum; settings: 26 DAA
Experimental: as §1

[1] = tested on: ivyleaf morningglory (IPOHE); experiment: Test 28 greenhouse, postemergence; assay type: in vivo, Ipomoea hederacea; settings: 26 DAA
Experimental: as §1

barnyardgrass (ECHCG) [2] = experiment: Test 28 greenhouse, postemergence; assay type: in vivo, Echinochloa crus-galli; settings: 26 DAA
Experimental: as §1

ducksalad (HETLI) = experiment: Test 32 greenhouse, simulated flooded rice culture; assay type: in vivo, Heteranthera limosa; parameters: scale not given here; settings: postemergence to flood, 21 DAA
Experimental: (§2) A greenhouse trial was conducted to evaluate the effects of Compound 1 and isoxadifen-ethyl at different ratios in simulated flooded rice culture. Plastic pots (11-cm diameter) were partially filled with non-sterilized Tama silt loam soil containing a 15:57:28 ratio of sand, silt and clay and 2.9% organic matter. Seeds of Heteranthera limosa (ducksalad; HETLI), Cyperus difformis (smallflower umbrella sedge; CYPDI), one stand of Echinochloa crus-galli (barnyardgrass; ECHCG), and one stand of four rice seedlings (Oryza sativa cv. ‘M202’; ORYSA) were planted into a single 11-cm diameter pot for each rate and mixture of rates. To obtain this planting, C. difformis and H. limosa seeds were planted separately on the surface soil layer at particular locations within each pot. Water levels were brought to a puddled condition above the soil surface directly after planting. E. crus-galli and rice seeds were planted in cavity trays in the silt loam soil and transplanted at the 1.5 and 2.0 leaf stage, respectively. E. crus-galli and rice plants were transplanted to about 2-cm depth by transferring plugs from the cavity trays. Plantings were sequential so that these plant species all reached the 2.0- to 2.5-leaf stage in the 11-cm diameter pot at time of treatment. Plantings were established and maintained in a greenhouse with day and night temperatures of about 29.5 and 26.7° C. respectively; supplemental balanced lighting was provided to maintain a 16-hour photoperiod. Pots were fertilized periodically with a 200 ppm solution of commercial Scotts Peters® Professional® General Purpose 20-20-20 Water Soluble Fertilizer, amended to 10 ppm with a commercial iron-chelate micronutrient fertilizer. The solution was supplied at time of watering via a liquid fertilizer injector.
(§3) At treatment time, test pots were flooded to 3 cm above the soil surface and maintained at that water depth for the duration of the test. Chemical treatments were formulated in acetone and applied directly to the paddy water (i.e., postemergence to flood). Make-up volumes of acetone were added to ensure that all pots were treated with a consistent volume. Test pots were maintained in the greenhouse. A randomized complete block design was employed. Five replicates of each treatment, alone and in mixture, were used. Each species was visually evaluated for treatment effects by comparing those treated to untreated controls and rated for plant response after 21 days.

[3] = tested on: smallflower umbrella sedge (CYPDI); experiment: Test 32 greenhouse, simulated flooded rice culture; assay type: in vivo, Cyperus difformis; settings: postemergence to flood, 21 DAA
Experimental: as §2, §3

barnyardgrass (ECHCG) [4] = experiment: Test 32 greenhouse, simulated flooded rice culture; assay type: in vivo, Echinochloa crus-galli; parameters: scale not given here; settings: postemergence to flood, 21 DAA
Experimental: as §2, §3

rice (ORYSA) = experiment: Test 32 greenhouse, simulated flooded rice culture; assay type: in vivo, Oryza sativa; settings: postemergence to flood, 21 DAA
Experimental: as §2, §3

spring wheat (TRZAS) = experiment: Test 4 field trial, postemergence; settings: clodinafop 56 or fenoxaprop 90 g a.i./ha alone
Experimental: (§4) A field trial was conducted to evaluate the effects of mixtures of Compound 2 with commercial herbicides on spring wheat (TRZAS, Triticum aestivum L.) and several weed species. Wheat seeds (cv. ‘AC Intrepid’) were planted in late spring season, 3.8 cm deep in a loam soil having 2.7% organic matter and a pH of 7. Plots were 6 m long by 2.5 m wide. The field was managed using no-till practices. The plots were arranged in a randomized complete block design with each treatment being replicated four times. Treatments were applied postemergence 25 days after planting using a backpack sprayer delivering a spray volume of 55 L/ha using a pressure of 276 kPa. […] Compound 2 and clodinafop treatments, alone and in combination, also included a surfactant. Weed species present in the experimental plots in sufficient quantity to be evaluated included wild oat (AVEFA, Avena fatua L.), common lambsquarters (CHEAL, Chenopodium album L.), kochia (KCHSC, Kochia scoparia (L.) Schrad.), wild buckwheat (POLCO, Polygonum convolvulus L.), Russian thistle (SASKR, Salsola kali L. ssp. ruthenica (Iljin) Soo), and field pennycress (THLAR, Thlaspi arvense L.). […] Common lambsquarters was evaluated only at 14 days after application. […] Results are the means of the four replicates.

wild oat (AVEFA) = experiment: Test 4 field trial, postemergence; assay type: in vivo, Avena fatua; parameters: scale not given here; settings: clodinafop 56 or fenoxaprop 90 g a.i./ha alone
Experimental: as §4

[5] = tested on: common lambsquarters (CHEAL); experiment: Test 4 field trial, postemergence; assay type: in vivo, Chenopodium album; settings: clodinafop 56 or fenoxaprop 90 g a.i./ha alone
wild buckwheat (POLCO) = experiment: Test 4 field trial, postemergence; assay type: in vivo, Polygonum convolvulus; settings: clodinafop 56 or fenoxaprop 90 g a.i./ha alone
Experimental: as §4

Russian thistle (SASKR) = experiment: Test 4 field trial, postemergence; assay type: in vivo, Salsola kali; parameters: scale not given here; settings: clodinafop 56 or fenoxaprop 90 g a.i./ha alone
Experimental: as §4

field pennycress (THLAR) = experiment: Test 4 field trial, postemergence; assay type: in vivo, Thlaspi arvense; parameters: scale not given here; settings: clodinafop 56 or fenoxaprop 90 g a.i./ha alone
Experimental: as §4

[6] = postemergence, Isoxadifen-ethyl 64 g a.i./ha
[7] = postemergence, Isoxadifen-ethyl 128 g a.i./ha
[8] = postemergence, Isoxadifen-ethyl 256 g a.i./ha
[9] = postemergence, Isoxadifen-ethyl 512 g a.i./ha
[10] = postemergence, Isoxadifen-ethyl 1024 g a.i./ha
[11] = preemergence, Isoxadifen-ethyl 64 g a.i./ha
[12] = preemergence, Isoxadifen-ethyl 128 g a.i./ha
[13] = preemergence, Isoxadifen-ethyl 256 g a.i./ha
[14] = preemergence, Isoxadifen-ethyl 512 g a.i./ha
[15] = preemergence, Isoxadifen-ethyl 1024 g a.i./ha
[16] = Isoxadifen-ethyl 1024 g a.i./ha
[17] = Isoxadifen-ethyl 31.25 g a.i./ha
[18] = Isoxadifen-ethyl 62.5 g a.i./ha
[19] = Isoxadifen-ethyl 1000 g a.i./ha
[20] = Isoxadifen-ethyl 1500 g a.i./ha

CCOC(=O)C1=NOC(c2ccccc2)(c2ccccc2)C1 [Isoxadifen-ethyl]
ZEAMD Obs (corn (ZEAMD); [6]): 0 | ZEAMD Obs (corn (ZEAMD); [7]): 0 | ZEAMD Obs (corn (ZEAMD); [8]): 0 | ZEAMD Obs (corn (ZEAMD); [9]): 0 | ZEAMD Obs (corn (ZEAMD); [10]): 0 | ZEAMD Obs (corn (ZEAMD); [11]): 0 | ZEAMD Obs (corn (ZEAMD); [12]): 0 | ZEAMD Obs (corn (ZEAMD); [13]): 0 | ZEAMD Obs (corn (ZEAMD); [14]): 0 | ZEAMD Obs (corn (ZEAMD); [15]): 0 | SORVU Obs (sorghum (SORVU); Isoxadifen-ethyl 64 g a.i./ha): 0% | SORVU Obs (sorghum (SORVU); Isoxadifen-ethyl 128 g a.i./ha): 0% | SORVU Obs (sorghum (SORVU); Isoxadifen-ethyl 256 g a.i./ha): 0% | SORVU Obs (sorghum (SORVU); Isoxadifen-ethyl 512 g a.i./ha): 0% | SORVU Obs (sorghum (SORVU); [16]): 0% | ORYSA Obs (dry-seeded rice (ORYSA); Isoxadifen-ethyl 64 g a.i./ha): 0 | ORYSA Obs (dry-seeded rice (ORYSA); Isoxadifen-ethyl 128 g a.i./ha): 0 | ORYSA Obs (dry-seeded rice (ORYSA); Isoxadifen-ethyl 256 g a.i./ha): 0 | ORYSA Obs (dry-seeded rice (ORYSA); Isoxadifen-ethyl 512 g a.i./ha): 0 | ORYSA Obs (dry-seeded rice (ORYSA); [16]): 0 | TRZAW Obs (wheat (TRZAW); [6]): 0% | TRZAW Obs (wheat (TRZAW); [7]): 0% | TRZAW Obs (wheat (TRZAW); [8]): 0% | TRZAW Obs (wheat (TRZAW); [9]): 0% | TRZAW Obs (wheat (TRZAW); [10]): 0% | TRZAW Obs (wheat (TRZAW); [11]): 0% | TRZAW Obs (wheat (TRZAW); [12]): 0% | TRZAW Obs (wheat (TRZAW); [13]): 0% | TRZAW Obs (wheat (TRZAW); [14]): 0% | TRZAW Obs (wheat (TRZAW); [15]): 0% | IPOHE Obs ([1]; Isoxadifen-ethyl 64 g a.i./ha): 0 | IPOHE Obs ([1]; Isoxadifen-ethyl 128 g a.i./ha): 0 | IPOHE Obs ([1]; Isoxadifen-ethyl 256 g a.i./ha): 0 | IPOHE Obs ([1]; Isoxadifen-ethyl 512 g a.i./ha): 0 | IPOHE Obs [1, 16]: 0 | ECHCG Obs (barnyardgrass (ECHCG) [2]; Isoxadifen-ethyl 64 g a.i./ha): 0 | ECHCG Obs (barnyardgrass (ECHCG) [2]; Isoxadifen-ethyl 128 g a.i./ha): 0 | ECHCG Obs (barnyardgrass (ECHCG) [2]; Isoxadifen-ethyl 256 g a.i./ha): 0 | ECHCG Obs (barnyardgrass (ECHCG) [2]; Isoxadifen-ethyl 512 g a.i./ha): 0 | ECHCG Obs (barnyardgrass (ECHCG) [2]; [16]): 0 | HETLI Obs (ducksalad (HETLI); [17]): 10 | HETLI Obs (ducksalad (HETLI); [18]): 29 | HETLI Obs (ducksalad (HETLI); Isoxadifen-ethyl 125 g a.i./ha): 35 | HETLI Obs (ducksalad (HETLI); Isoxadifen-ethyl 250 g a.i./ha): 19 | HETLI Obs (ducksalad (HETLI); Isoxadifen-ethyl 500 g a.i./ha): 23 | HETLI Obs (ducksalad (HETLI); [19]): 25 | HETLI Obs (ducksalad (HETLI); [20]): 36 | CYPDI Obs [3, 17]: 28 | CYPDI Obs [3, 18]: 24 | CYPDI Obs ([3]; Isoxadifen-ethyl 125 g a.i./ha): 84 | CYPDI Obs ([3]; Isoxadifen-ethyl 250 g a.i./ha): 59 | CYPDI Obs ([3]; Isoxadifen-ethyl 500 g a.i./ha): 49 | CYPDI Obs [3, 19]: 53 | CYPDI Obs [3, 20]: 59 | ECHCG Obs (barnyardgrass (ECHCG) [4]; [17]): 4 | ECHCG Obs (barnyardgrass (ECHCG) [4]; [18]): 9 | ECHCG Obs (barnyardgrass (ECHCG) [4]; Isoxadifen-ethyl 125 g a.i./ha): 15 | ECHCG Obs (barnyardgrass (ECHCG) [4]; Isoxadifen-ethyl 250 g a.i./ha): 10 | ECHCG Obs (barnyardgrass (ECHCG) [4]; Isoxadifen-ethyl 500 g a.i./ha): 5 | ECHCG Obs (barnyardgrass (ECHCG) [4]; [19]): 8 | ECHCG Obs (barnyardgrass (ECHCG) [4]; [20]): 9 | ORYSA Obs (rice (ORYSA); [17]): 2% | ORYSA Obs (rice (ORYSA); [18]): 5% | ORYSA Obs (rice (ORYSA); Isoxadifen-ethyl 125 g a.i./ha): 11% | ORYSA Obs (rice (ORYSA); Isoxadifen-ethyl 250 g a.i./ha): 7% | ORYSA Obs (rice (ORYSA); Isoxadifen-ethyl 500 g a.i./ha): 5% | ORYSA Obs (rice (ORYSA); [19]): 5% | ORYSA Obs (rice (ORYSA); [20]): 10%

CC(Oc1ccc(Oc2nc3ccc(Cl)cc3o2)cc1)C(=O)O (stereo not shown) [Fenoxaprop]
TRZAS Obs (spring wheat (TRZAS); 14 DAA): 0 | TRZAS Obs (spring wheat (TRZAS); 35 DAA): 0 | TRZAS Obs (spring wheat (TRZAS); 55 DAA): 0 | AVEFA Obs (wild oat (AVEFA); 14 DAA): 96 | AVEFA Obs (wild oat (AVEFA); 35 DAA): 96 | AVEFA Obs (wild oat (AVEFA); 55 DAA): 98 | CHEAL Obs ([5]; 14 DAA): 0 | CHEAL Obs ([5]; 35 DAA): 0 | POLCO Obs (wild buckwheat (POLCO); 14 DAA): 0 | POLCO Obs (wild buckwheat (POLCO); 35 DAA): 0 | SASKR Obs (Russian thistle (SASKR); 14 DAA): 0 | SASKR Obs (Russian thistle (SASKR); 35 DAA): 0 | THLAR Obs (field pennycress (THLAR); 14 DAA): 0 | THLAR Obs (field pennycress (THLAR); 35 DAA): 0
